Source: ChEMBL document CHEMBL1157539, “Thousands of chemical starting points for antimalarial lead identification” (Nature, 2010)

Tested on: Plasmodium falciparum
Assay: GSK_TCMDC: Inhibition of Plasmodium falciparum 3D7 in whole erythrocytes, using parasite LDH activity as an index of growth.
Type: functional, organism-based
Settings: Plasmodium falciparum, 3D7

| Compound | XC50 [nM] |
| --- | --- |
| COCCN1CCC(CN(C)CC(C)(C)c2nc(-c3ccc(Cl)c(O)c3)c(-c3ccncc3)[nH]2)CC1 | 1030 |
| c1ccc(CN2CCC(NCc3ccc(-c4cncc5ccccc45)cc3)CC2)cc1 | 877 |
| O=C(/C=C/c1ccc(Cl)c(Cl)c1)NCCCCCN1CCN(C(=O)Nc2cccc(F)c2)CC1 | 874 |
| Cc1cccc2[nH]cc(C3CCN(CCC4CCN(C(=O)/C=C/c5ccc(Cl)c(Cl)c5)CC4)CC3)c12 | 1220 |
| CN(C)CCN(C)Cc1ccc(-c2ccc3c(Nc4ccc(F)cc4Cl)ccnc3c2)o1 | 118 |
| CC(C)(C)NCC(O)COc1ccc(Cl)cc1C1=NNC(=O)CC1 (stereo unspecified) | 150 |
| CCOC(=O)C1=C(C)N=c2sc(=Cc3ccccc3O)c(=O)n2C1c1ccc(OC)c2ccccc12 (stereo unspecified) | 1260 |
| Cc1[nH]c2ccc([N+](=O)[O-])cc2c1C1=CCN(C)CC1 | 335 |
| O=C(Nc1ccc(C(F)(F)F)cc1)NC1CCN(c2ccnc3ccccc23)C1 (stereo unspecified) | 87.5 |
| CC(=O)c1cccc(NC(=O)NC2CCN(CCCCCNC(=O)/C=C/c3ccc(Cl)c(Cl)c3)CC2)c1 | 835 |
| CCc1c(C)nc(-n2nc(C)cc2NC(=O)C2c3ccccc3Oc3ccccc32)[nH]c1=O | 952 |
| CN(c1cc(NC(=O)c2ccc(F)cc2)ccn1)C1CCN(Cc2cccc(C#N)c2)CC1 | 831 |
| Cc1cnc(Nc2cccc(CCN3CCOCC3)c2)nc1NC(C)C | 738 |
| CC(C)C[C@H](NC(=O)[C@H](Cc1ccccc1)NC(=O)CCN1C(=O)COc2ccc(C(=O)O)cc21)C(=O)NC(CC1CCCCC1)C(O)CC(=O)NCCCn1ccnc1 (stereo partly specified) | 970 |
| COc1ccc2c(c1)CCN(CCN1CCC(CNC(=O)c3ccc(-c4ccc(C#N)cc4)cc3)CC1)C2 | 617 |
| Cc1noc(-c2ccc(N3CCC(C(=O)N4CCN(C(C)C)CC4)CC3)cc2)n1 | 1070 |
| CC(C)CCCC(C)(C)NC[C@@H](O)[C@H](Cc1ccccc1)NC(=O)c1cccc(OCC2CC2)c1 | 843 |
| COc1ccc2c(=NN=C(C)c3ccccn3)cc(C)[nH]c2c1 | 722 |
| COc1ccc(-c2ccc(Nc3cccc(S(=O)(=O)CCN4CCC(CCN(C)C)CC4)c3)nc2)cn1 | 1120 |
| Cc1ccc(NC(=O)c2nc(N3CCN(c4ccncc4)CC3)ccc2Cl)cc1F | 812 |
| COc1cccc(NC(=O)NC2CCN(c3ccnc(Nc4cc(OC)c(OC)c(OC)c4)n3)C2)c1 (stereo unspecified) | 856 |
| CC(=O)Nc1nc(C(=O)Nc2cccc(-c3ccc(-c4nc5cc(F)ccc5[nH]4)cc3)c2)cs1 | 288 |
| Cc1[nH]c(C)c(-c2ccc(OCc3ccc(F)cc3)nc2)c(=O)c1Br | 203 |
| Nc1nccc2ccc(-c3cccc4ncccc34)cc12 | 52.4 |

| Compound | XC50 [nM] |
| --- | --- |
| COc1cccc2c(C)cc(NCc3ccc(Cl)cc3)nc12 | 860 |
| CN1CCN(c2nsc3ccc(-c4ccc(NC(=O)Nc5ccccc5)cc4)cc23)CC1 | 180 |
| CS(=O)(=O)c1ccccc1CNC(=O)c1ccc(-c2ccc(-c3nc4cc(C(F)(F)F)ccc4[nH]3)s2)cc1 | 236 |
| Cc1nc(C(=O)N2CCCC[C@H]2CNC(=O)c2ccc(-c3ccc(N4CCCC4=O)cc3C)cc2)c(-c2ccc(F)cc2)s1 | 459 |
| CC(C)(C)c1ccc(NC(=O)c2ccc(CN3CCCN(Cc4ccsc4)CC3)cc2)cc1 | 716 |
| CCCN(Cc1nnc(-c2ccco2)o1)C(=O)C1CCN(c2ncc(C(F)(F)F)cc2Cl)CC1 | 691 |
| COc1cc2nc(N3CCC(CNC(=O)c4ccc(-c5ccc(C(=O)N(C)C)cc5OCCO)cc4)CC3)nc(N)c2cc1OC | 645 |
| COc1ccc(CC2(CO)CCN(Cc3ccc(O)c(Cl)c3)CC2)cc1 | 859 |
| CCn1c(SCC(=O)Nc2cc(C(F)(F)F)ccc2Cl)nc2ccccc2c1=O | 397 |
| CCC[C@@H]([C@@H](CC(C)C)C(=O)N[C@@H](CCCCNC(=O)OCc1ccccc1)C(=O)Nc1ncccn1)N(O)C=O | 59.1 |
| CCCc1cccc(C)c1OCCCON1C(=N)N=C(N)NC1(C)C | 3.2 |
| Cn1cncc1C(=O)Nc1ccc(-c2ccc(-c3nc4cc(C(F)(F)F)ccc4[nH]3)cc2)cc1 | 560 |
| Cc1ccc(O)cc1Nc1ccnc2ccc(-c3cccc(CNCCN(C)C)c3)cc12 | 612 |
| Cc1ccc(NC(=O)c2cc(Br)cc(N3CCCN(C)CC3)c2)cc1F | 1340 |
| Cc1nn(C)cc1C(C)Nc1nncc(-c2ccc(C(F)(F)F)cc2)n1 (stereo unspecified) | 246 |
| O=C(NCc1ccccc1)OC1CNCCC1c1ccc(C(O)Cc2ccccc2)cc1 (stereo unspecified) | 576 |
| CC(C)C(C(=O)n1cc2c(ccc3nc(N)nc(N)c32)n1)C(C)C | 790 |
| COCCNCc1cccc(-c2cccc(CN(C(=O)Nc3ccccc3)C3CCN(Cc4ccccc4)CC3)c2)c1 | 126 |
| COCc1ccc(CN2CCC(C(=O)Nc3ccc(-c4nc5ccccc5[nH]4)cc3)CC2)o1 | 853 |
| O=C(NC1CC1)c1ccc(Cn2c(SCc3cccc(Cl)c3)nc3ccccc3c2=O)cc1 | 422 |
| CCn1c2ccccc2c2cc(C=NN=c3cc(C)[nH]c4ccccc34)ccc21 | 309 |
| Cc1cc(NC(=O)Nc2ccc(Oc3ccccc3)cc2)c2ccccc2n1 | 840 |
| CC(=O)Nc1ccc(Nc2cc(C)nc(Nc3ccc(NC(C)=O)cc3)n2)cc1 | 894 |
| O=C(NCc1cccc(C(F)(F)F)c1)[C@@H]1CCCN1C(=O)c1ccc(O)c(-c2ccc(Cl)c(Cl)c2)c1 | 787 |

| Compound | XC50 [nM] |
| --- | --- |
| CCn1ccc2c(N3CCCS3(=O)=O)cc(C(=O)N[C@@H](Cc3ccccc3)[C@H](O)CNC3CCCCC3)cc21 | 137 |
| O=C(Nc1ccc(OC2CCN(Cc3ccsc3)C2)c(Cl)c1)c1cccs1 (stereo unspecified) | 960 |
| CCCNCc1ccc(-c2ccc(CN(CCOC)C(=O)/C=C/c3ccccc3C)cc2)nc1 | 903 |
| COc1ccc(NC(=O)C2CCN(CCCCCNC(=O)/C=C/c3ccc(Cl)c(Cl)c3)CC2)cc1 | 828 |
| O=C(Nc1cccc(F)c1)c1ccc(C(=O)NC2CCN(CC3CCCCC3)CC2)cc1 | 863 |
| NCc1cccc(-c2ccccc2CNC2CCN(Cc3ccccc3)CC2)c1 | 770 |
| CN(C)CCCNc1c2ccccc2nc2ccccc12 | 1040 |
| Cc1ccc(NC(=O)N2CCCN(CCCCCNC(=O)/C=C/c3ccc(Cl)c(Cl)c3)CC2)cc1C | 773 |
| Cc1ccc(-c2cc(C(=O)Nc3ccc(S(=O)(=O)N4CCCC(C)C4)cc3)[nH]n2)c(O)c1 (stereo unspecified) | 280 |
| Cc1c(CNCCCNc2cc(=O)c3ccccc3[nH]2)sc(C(F)F)c1Br | 867 |
| COCCNCC(O)Cn1c2ccc(Cl)cc2c2cc(Cl)ccc21 (stereo unspecified) | 52 |
| CCCCCC(C)N/C(=N/c1ccccc1Br)Nc1ccc(C#N)cc1O (stereo unspecified) | 751 |
| CCOC(=O)[C@H](Cc1cccc2ccccc12)NC(=O)[C@H](CCC(=O)OC(C)(C)C)NC(=O)c1ccc(N(C)Cc2cnc3nc(N)nc(N)c3n2)cc1 | 663 |
| Cc1cc(C)c(S(=O)(=O)N2CCCCC(c3cccc(C(F)(F)F)c3)=N2)c(C)c1 | 456 |
| O=C(NCCN1CCCC1)N1CCCN(c2ncnc3cc(-c4ccc(F)cc4)sc23)CC1 | 902 |
| Cc1ccccc1/N=C1\NC(=S)N(c2cccc(C(F)(F)F)c2)C12CCC(C(C)(C)C)CC2 (stereo unspecified) | 973 |
| COc1ccccc1N1CCN(CCCCNC(=O)c2ccc(NC(=O)c3ccc(C(F)(F)F)cc3)cc2)CC1 | 304 |
| CS(=O)(=O)CCNCc1cccc(-c2ccc3c(Nc4ccc(Oc5cccnc5)cc4)ccnc3c2)c1 | 142 |
| Cc1[nH]c2ccc(NS(C)(=O)=O)cc2c1C1CCN(CCC2CCN(C(=O)/C=C/c3ccc(Cl)c(Cl)c3)CC2)CC1 | 844 |
| Cc1ccc(Nc2nccc(Nc3ccc4c(C)n[nH]c4c3)n2)cc1F | 785 |
| CN(C)CCNC(=O)[C@H](Cc1ccccc1)NC(=O)c1ccc(O)c(-c2ccc(Cl)c(Cl)c2)c1 | 715 |
| NCCCN(Cc1ccc(Cl)c(Cl)c1)C(=O)Nc1ccc(Cl)c(Cl)c1 | 898 |
| Cc1ccc(NC(=O)c2ccc(N3CCC(c4ccccc4C)CC3)nc2)cc1 | 1400 |
| O=C(c1ccc(F)c2ccccc12)N1CCc2cc3nccc(N4CCN5CCC[C@H]5C4)c3cc21 | 1000 |

| Compound | XC50 [nM] |
| --- | --- |
| Cc1ccc(C)c2sc(N(CCCn3ccnc3)C(=O)c3ccco3)nc12 | 874 |
| O=C(COc1ccccc1)NC1CCN(c2ccnc3cc(Cl)ccc23)C1 (stereo unspecified) | 698 |
| COc1ccc2nccc([C@@H](O)CN3CCC(NCCOc4ccc(F)cc4Cl)CC3)c2c1 | 276 |
| CC(C)(CN)c1cc(-c2ccc(Cl)c(O)c2)c(-c2ccncc2)o1 | 1140 |
| COc1ccc(O)c(C(=O)c2cc(C(=O)NC3CCCCC3)c(=O)n(C3CCCCC3)c2)c1 | 664 |
| CC(C)CNCc1cccc(-c2cccc(CN(CCN(C)C)C(=O)Nc3ccccc3)c2)c1 | 795 |
| Oc1cc(Nc2ccnc3ccc(I)cc23)c(F)cc1Cl | 1230 |
| CC1CCN(CCCNc2ccc(C(=O)Nc3ccc(C(F)(F)F)cc3)cc2[N+](=O)[O-])CC1 | 340 |
| O=C(Nc1ccc2c(c1)OCO2)NC1CCN(c2ccnc(Nc3ccc(F)cc3)n2)C1 (stereo unspecified) | 743 |
| O=S(=O)(/C=C/c1ccccc1)N(Cc1ccc(-c2ccc(CNCCc3ccccc3)cc2)cc1)CC1CCCCN1 (stereo unspecified) | 794 |
| COc1cc(OC)cc(-c2nc3ccc(OCCN(C)C)c(C#N)c3[nH]2)c1 | 655 |
| N=C(N)NCC=C(c1ccccc1)c1ccccc1 | 989 |
| O=C(/C=C/c1ccccc1)N1CCOC(CCN2CCC(c3ccccc3)CC2)(c2ccc(Cl)c(Cl)c2)C1 (stereo unspecified) | 516 |
| CN1CCC(N(C)c2nccc(N3CCN(Cc4cncn4Cc4ccccc4)CC3)n2)CC1 | 704 |
| CCc1cc(NC(=O)Nc2ccnc3ccccc23)ccc1OC | 138 |
| Cc1cccc2nc(-c3ccc(-c4ccc(NC(=O)C(C)CN5CCN(C)CC5)cc4)s3)[nH]c12 (stereo unspecified) | 731 |
| Cc1noc(C)c1-c1cccc(CNCc2ccc(-c3cccc(-c4nc5cc(C(F)(F)F)ccc5[nH]4)c3)cc2)c1 | 556 |
| CN1CCCN(Cc2cccc(-c3ccc(NC(=O)c4cccc(Cl)c4)cc3)c2)CC1 | 927 |
| COc1ccc(Oc2ccccc2CNCC2CCN(CC3CCCCC3)CC2)cc1 | 904 |
| CN(CCc1ccccc1)c1ncc(-c2cccc(CNCCC3CCCN3C)c2)cn1 (stereo unspecified) | 870 |
| CC(C)[C@H](NC(=O)c1ccc(O)c(-c2cccc(C(F)(F)F)c2)c1)C(=O)NC1CCCc2ccccc21 (stereo partly specified) | 930 |
| Cc1cccc2nc(-c3ccc(-c4cccc(CN5CCCC(N)C5)c4)s3)[nH]c12 (stereo unspecified) | 539 |
| Cc1cc(C)cc(NC(=S)NCCCCN2CCN(c3cccc(Cl)c3)CC2)c1 | 1350 |
| Oc1ccc2ccccc2c1C=NNc1nc(=Nc2ccccc2)[nH]c(=Nc2ccccc2)[nH]1 | 667 |
